Laboratory results: PMC9157788, “Design, Synthesis, and Apoptosis-Promoting Effect Evaluation of Rhopaladins’ Analog 4-Arylidene-5-Oxopyrrolidine Derivatives” (Frontiers in Chemistry, 2022)
Where two headings read alike, the source gives them in different places.

Columns and labels:
7402 cells [1] = assay: MTT cell viability assay, 7402; type: cell-based; conditions: Homo sapiens, 48 h, read-out: Half inhibitory concentration (IC50), 7402
Protocol: (§1) HepG2 (human epidermoid hepatocellular carcinoma cell), 7402 (human epidermoid hepatocellular carcinoma cell), C-33A (human epidermoid cervical carcinoma cell), and HeLa (human epidermoid cervical adenocarcinoma cell) were incubated in Dulbecco’s modified Eagle’s medium (DMEM), which was purchased from Gibco (Grand Island, NY, United States). SiHa cells (human epidermoid cervical squamous cell carcinoma) were incubated in minimum essential medium (MEM, also from Gibco). CaSki (human epidermoid cervical carcinoma cell) and LO2 (human normal liver cell) were incubated in minimum essential medium (MEM, also from Gibco). All cells were maintained at 37°C in a humidified incubator with 5% carbon dioxide, and the media contained 10% fetal bovine serum (FBS, Corning, United States) and 1% penicillin–streptomycin antibiotic solution (Corning, United States). SiHa and CaSki were bought from the China Center for Type Culture Collection (CCTCC). The other five types of cancer cell lines were obtained from the Experiment Center of Medicine, Sinopharm Dongfeng Hospital, Hubei University of Medicine. The compounds were dissolved in dimethyl sulfoxide (DMSO, MP Biomedicals, United States), and cisplatin was purchased from Aladdin, Shanghai, China. The control (0 μM) group was treated with DMSO only in the same conditions, and the DMSO content in the medium was less than 0.1%.
(§2) Cell viability was measured by a 3-(4,5-dimethylthiazol-2-yl)-2,5-diphenyltetrazolium bromide (MTT, MultiSciences, China) assay. The specific experimental steps referred to our previous research ([Zhu et al., 2020]). For each cell line, cells were digested and seeded in 96-well plates at a density of 1 × 10^3 cells/well. […] Then, the formed formazan crystals were dissolved in DMSO, and the plates were estimated in a […] microplate reader (BioTek Inc., Bio-Tek MQX200) at a wavelength of 490 nm. Optical density (OD) values were obtained, and the inhibition rate and IC50 of each compound on different cells were calculated by GraphPad Prism 8.0.1 software. […]

SiHa cells [2] = assay: MTT cell viability assay, SiHa; type: cell-based; conditions: Homo sapiens, 48 h, read-out: Half inhibitory concentration (IC50), SiHa
Protocol: as §1, §2

HeLa cells [3] = assay: MTT cell viability assay, HeLa; type: cell-based; conditions: Homo sapiens, 48 h, read-out: Half inhibitory concentration (IC50), HeLa
Protocol: as §1, §2

CaSki cells [4] = assay: MTT cell viability assay, CaSki; type: cell-based; conditions: Homo sapiens, Ca-Ski, 48 h, read-out: Half inhibitory concentration (IC50), CaSki
Protocol: as §1, §2

HepG2 cells [5] = assay: MTT cell viability assay, HepG2; type: cell-based; conditions: Homo sapiens, 48 h, read-out: Half inhibitory concentration (IC50), HepG2
Protocol: as §1, §2

LO2 cells [6] = assay: MTT cell viability assay, normal liver LO2; type: cell-based, human; conditions: Homo sapiens, L02, normal liver LO2 cells, 48 h, read-out: Half inhibitory concentration (IC50), LO2
Protocol: as §1
Cell viability was measured by a 3-(4,5-dimethylthiazol-2-yl)-2,5-diphenyltetrazolium bromide (MTT, MultiSciences, China) assay. The specific experimental steps referred to our previous research ([Zhu et al., 2020]). For each cell line, cells were digested and seeded in 96-well plates at a density of 1 × 10^3 cells/well. After 24 h of culture, the cells were adherent and treated with varying concentrations of RPDPRH (0, 3.125, 6.25, 12.5, 25, 50, and 100 μM). Cells without treatment were used as a solvent control group (0 μM, DMSO) and those with cisplatin treatment served as a positive control. After 48 h of treatment, MTT solution was added and incubated for 4 h. Then, the formed formazan crystals were dissolved in DMSO, and the plates were estimated in a […] microplate reader (BioTek Inc., Bio-Tek MQX200) at a wavelength of 490 nm. Optical density (OD) values were obtained, and the inhibition rate and IC50 of each compound on different cells were calculated by GraphPad Prism 8.0.1 software. Cell inhibition rate (%) = 1− [(OD experimental-OD blank)/(OD control-OD blank)] × 100%.

C-33A cells [7] = assay: MTT cell viability assay, C-33A; type: cell-based; conditions: Homo sapiens, 48 h, read-out: Half inhibitory concentration (IC50), C-33A
Protocol: as §1, §2

C-33A cells [8] = tested on: C-33A cells; parameters: method as in Kong et al., 2021; conditions: MTT, ref Kong et al., 2021, read-out: Half inhibitory concentration (IC50), C-33A; cited from earlier work
HepG2 cells [9] = tested on: HepG2 cells; parameters: method as in Kong et al., 2021; conditions: MTT, ref Kong et al., 2021, read-out: Half inhibitory concentration (IC50), HepG2; cited from earlier work
HeLa cells [10] = tested on: HeLa cells; parameters: method as in Kong et al., 2021; conditions: MTT, ref Kong et al., 2021, read-out: Half inhibitory concentration (IC50), HeLa; cited from earlier work
7402 cells [11] = tested on: 7402 cells; parameters: method as in Kong et al., 2021; conditions: MTT, ref Kong et al., 2021, read-out: Half inhibitory concentration (IC50), 7402; cited from earlier work
CaSki cells [12] = tested on: CaSki cells; parameters: method as in Kong et al., 2021; conditions: MTT, ref Kong et al., 2021, read-out: Half inhibitory concentration (IC50), CaSki; cited from earlier work
LO2 cells [13] = tested on: LO2 cells; parameters: method as in Kong et al., 2021; conditions: normal liver LO2 cells, MTT; ref Kong et al., 2021; read-out: Half inhibitory concentration (IC50), LO2; cited from earlier work
SiHa cells [14] = tested on: SiHa cells; parameters: method as in Kong et al., 2021; conditions: MTT, ref Kong et al., 2021, read-out: Half inhibitory concentration (IC50), SiHa; cited from earlier work

| SMILES | IC50 (7402 cells [1]) [µM] | IC50 (SiHa cells [2]) [µM] | IC50 (HeLa cells [3]) [µM] | IC50 (CaSki cells [4]) [µM] | melting point [°C] | IC50 (HepG2 cells [5]) [µM] | IC50 (LO2 cells [6]) [µM] | IC50 (C-33A cells [7]) [µM] | IC50 (C-33A cells [8]) [µM] | IC50 (HepG2 cells [9]) [µM] | IC50 (HeLa cells [10]) [µM] | IC50 (7402 cells [11]) [µM] | IC50 (CaSki cells [12]) [µM] | IC50 (LO2 cells [13]) [µM] | IC50 (SiHa cells [14]) [µM] |
| --- | --- | --- | --- | --- | --- | --- | --- | --- | --- | --- | --- | --- | --- | --- | --- |
| O=C1/C(=C/c2ccccc2)CC(/C=C/c2ccccc2)(C(=O)NC2CCCCC2)N1c1ccc(Cl)cc1 (stereo not drawn) [RPDPRI, (2E, 4E)-4-benzylidene-1-(4-chlorophenyl)-N-cyclohexyl-5-oxo-2-styrylpyrrolidine-2-carboxamide] | > 100 | > 100 | > 100 | > 100 | 209 to 210 | > 100 | > 100 | > 100 |  |  |  |  |  |  |  |
| O=C1/C(=C/c2ccccc2)CC(/C=C/c2ccc(Cl)cc2)(C(=O)NC2CCCCC2)N1c1ccc(F)cc1 (stereo not drawn) [RPDPRO, (2E, 4E)-2-(4-chlorostyryl)-4-benzylidene-N-cyclohexyl-1-(4-fluorophenyl)-5-oxopyrrolidine-2-carboxamide] |  |  |  |  | 142 to 144 |  |  |  | 5.56 | 14.5 | 21.4 | 31.2 | 9.15 | 86.8 | 12.5 |
| N.N.[Cl][Pt][Cl] [Cisplatin, cisplatin, reference compound] |  |  |  |  |  |  |  |  | 48.2 | 19.3 | 47.5 | 48.5 | 17.5 | 17.3 | 37.1 |
| O=C1/C(=C/c2ccc(Cl)cc2)CC(/C=C/c2ccccc2)(C(=O)NC2CCCCC2)N1c1ccc(Cl)cc1 (stereo not drawn) [RPDPRK, (2E, 4E)-4-(4-chlorobenzylidene)-1-(4-chlorophenyl)-N-cyclohexyl-5-oxo-2-styryl pyrrolidine-2-carboxamide] | > 100 | 67.3 | 44.7 | 46.4 |  | > 100 | > 100 | 89.5 |  |  |  |  |  |  |  |
